Experiments:
[1] = biological target: Carbonic anhydrase 9 (Homo sapiens, UniProt Q16790); assay: Inhibition of human carbonic anhydrase 9 assessed as inhibition constant incubated for 15 mins by phenol red dye based stopped flow CO2 hydration assay
[2] = biological target: Carbonic anhydrase 4 (Homo sapiens, UniProt P22748); assay: Inhibition of human carbonic anhydrase 4 assessed as inhibition constant preincubated for 15 mins and measured for 10 to 100 sec by phenol red dye based stopped flow CO2 hydration assay
Carbonic anhydrase 4, sequence (P22748 whole entry): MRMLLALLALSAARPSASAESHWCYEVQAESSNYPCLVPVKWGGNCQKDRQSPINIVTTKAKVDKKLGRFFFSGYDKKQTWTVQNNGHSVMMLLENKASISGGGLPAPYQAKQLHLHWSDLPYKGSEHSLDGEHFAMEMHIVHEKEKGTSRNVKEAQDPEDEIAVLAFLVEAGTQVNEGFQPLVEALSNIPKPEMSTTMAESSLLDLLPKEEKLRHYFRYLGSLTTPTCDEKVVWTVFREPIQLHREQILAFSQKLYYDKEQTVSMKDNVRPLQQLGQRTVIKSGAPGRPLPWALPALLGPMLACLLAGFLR

[3] = biological target: Carbonic anhydrase 1 (Homo sapiens, UniProt P00915); assay: Inhibition of human carbonic anhydrase 1 assessed as inhibition constant preincubated for 15 mins and measured for 10 to 100 sec by phenol red dye based stopped flow CO2 hydration assay
Carbonic anhydrase 1, sequence (P00915 whole entry): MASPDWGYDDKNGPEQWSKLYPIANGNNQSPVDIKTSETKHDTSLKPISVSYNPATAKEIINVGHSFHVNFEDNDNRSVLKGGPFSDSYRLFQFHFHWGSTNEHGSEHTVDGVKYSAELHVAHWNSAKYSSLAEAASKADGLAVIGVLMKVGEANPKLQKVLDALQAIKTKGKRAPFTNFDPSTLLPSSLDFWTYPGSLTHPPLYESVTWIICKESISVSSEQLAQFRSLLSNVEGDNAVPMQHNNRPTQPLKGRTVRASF

[4] = Cytotoxicity against HGF cells assessed as increase in cell viability at 10 uM incubated for 48 hrs by MTT assay relative to doxorubicin; assay type: toxicity, cell-based; conditions: human
[5] = biological target: Carbonic anhydrase 2 (Homo sapiens, UniProt P00918); assay: Inhibition of human carbonic anhydrase 2 assessed as inhibition constant preincubated for 15 mins and measured for 10 to 100 sec by phenol red dye based stopped flow CO2 hydration assay
[6] = Cytotoxicity against HGF cells assessed as increase in cell viability at 10 uM incubated for 72 hrs by MTT assay relative to control; assay type: toxicity, cell-based; conditions: human
[7] = Cytotoxicity against HGF cells assessed as cell viability at 50 uM incubated for 72 hrs by MTT assay relative to control; assay type: toxicity, cell-based; conditions: human, read-out: Activity
[8] = Cytotoxicity against HGF cells assessed as increase in cell viability at 50 uM incubated for 48 hrs by MTT assay relative to doxorubicin; assay type: toxicity, cell-based; conditions: human
[9] = Cytotoxicity against HGF cells assessed as increase in cell viability at 10 uM incubated for 72 hrs by MTT assay relative to doxorubicin; assay type: toxicity, cell-based; conditions: human
[10] = Cytotoxicity against HGF cells assessed as increase in cell viability at 50 uM incubated for 72 hrs by MTT assay relative to control; assay type: toxicity, cell-based; conditions: human
[11] = Cytotoxicity against HGF cells assessed as increase in cell viability at 50 uM incubated for 48 hrs by MTT assay relative to control; assay type: toxicity, cell-based; conditions: human
[12] = Cytotoxicity against HGF cells assessed as increase in cell viability at 10 uM incubated for 48 hrs by MTT assay relative to control; assay type: toxicity, cell-based; conditions: human

| Compound | Ki [1] [nM] | Ki [2] [nM] | Ki [3] [nM] | Ki [5] [nM] | Activity [4] | Activity [6] | viability at 72 h, 50 µM [7] [%] | Activity [8] | Activity [9] | Activity [10] | Activity [11] | Activity [12] |
| --- | --- | --- | --- | --- | --- | --- | --- | --- | --- | --- | --- | --- |
| CN1CCN(C(=S)SCC(=O)Nc2ccc(S(N)(=O)=O)cc2)CC1 | 255 | 420 | – | – | – | – | – | – | – | – | – | – |
| Cc1ccc(N2CCN(C(=S)SCC(=O)Nc3ccc(S(N)(=O)=O)cc3)CC2)cc1 | 1250 | 2310 | 2010 | 371 | – | – | – | – | – | – | – | – |
| NS(=O)(=O)c1ccc(NC(=O)CSC(=S)N2CCN(c3ccccc3)CC2)cc1 | 744 | 1470 | 707 | 240 | – | – | – | – | – | – | – | – |
| NS(=O)(=O)c1ccc(NC(=O)CSC(=S)N2CCOCC2)cc1 | 162 | 649 | 72.8 | 7.2 | – | – | – | – | – | – | – | – |
| CCN1CCN(C(=S)SCC(=O)Nc2ccc(S(N)(=O)=O)cc2)CC1 | 296 | 189 | 8.2 | 4.9 | – | – | – | – | – | – | – | – |
| NS(=O)(=O)c1ccc(NC(=O)CSC(=S)N2CCCCC2)cc1 | 261 | 406 | 27.5 | 6 | – | – | – | – | – | – | – | – |
| NS(=O)(=O)c1ccc(NC(=O)CSC(=S)N2CCN(c3ccc(F)c(Cl)c3)CC2)cc1 | 276 | 2440 | 2120 | 438 | – | – | – | – | – | – | – | – |
| COc1ccc(N2CCN(C(=S)SCC(=O)Nc3ccc(S(N)(=O)=O)cc3)CC2)cc1 | 564 | 901 | 2080 | 298 | – | – | – | – | – | – | – | – |
| CC(=O)Nc1nnc(S(N)(=O)=O)s1 [ACETAZOLAMIDE] | – | – | – | – | Non-Toxic | – | > 60 | Non-Toxic | Non-Toxic | Toxic | – | – |
| COc1cccc2c1C(=O)c1c(O)c3c(c(O)c1C2=O)C[C@@](O)(C(=O)CO)C[C@@H]3O[C@H]1C[C@H](N)[C@H](O)[C@H](C)O1 [DOXORUBICIN] | – | – | – | – | – | Toxic | – | – | – | Toxic | Toxic | Toxic |

More lines, main results first:

| Ki [1] [nM] | Ki [2] [nM] | Ki [3] [nM] | Ki [5] [nM] | Compound | Activity [4] | Activity [6] | viability at 72 h, 50 µM [7] [%] | Activity [8] | Activity [9] | Activity [10] | Activity [11] | Activity [12] |
| --- | --- | --- | --- | --- | --- | --- | --- | --- | --- | --- | --- | --- |
| 30.3 | 7260 | 5030 | 51.5 | COc1ccccc1N1CCN(C(=S)SCC(=O)Nc2nc3ccc(S(N)(=O)=O)cc3s2)CC1 | Non-Toxic | Toxic | > 60 | Non-Toxic | Non-Toxic | Toxic | – | – |
| 28.8 | 5930 | 56.1 | 2.5 | CCN1CCN(C(=S)SCC(=O)Nc2nc3ccc(S(N)(=O)=O)cc3s2)CC1 | – | – | – | – | – | – | – | – |
| 136 | 779 | 54.8 | 5.7 | CCOC(=O)N1CCN(C(=S)SCC(=O)Nc2ccc(S(N)(=O)=O)cc2)CC1 | – | – | – | – | – | – | – | – |
| 30.6 | 5090 | 20.8 | 4.1 | CN1CCN(C(=S)SCC(=O)Nc2nc3ccc(S(N)(=O)=O)cc3s2)CC1 | – | – | – | – | – | – | – | – |
| 25.9 | 5540 | 599 | 297 | NS(=O)(=O)c1ccc2nc(NC(=O)CSC(=S)N3CCN(Cc4ccccc4)CC3)sc2c1 | Non-Toxic | Toxic | > 60 | Non-Toxic | Non-Toxic | Toxic | – | – |
| 157 | 7640 | 9150 | 965 | NS(=O)(=O)c1ccc2nc(NC(=O)CSC(=S)N3CCN(C(c4ccccc4)c4ccccc4)CC3)sc2c1 | – | – | – | – | – | – | – | – |
| 154 | 8450 | 1810 | 441 | NS(=O)(=O)c1ccc(NC(=O)CSC(=S)N2CCN(C(c3ccccc3)c3ccccc3)CC2)cc1 | – | – | – | – | – | – | – | – |
| 26.6 | 7440 | 85.6 | 3.8 | NS(=O)(=O)c1ccc2nc(NC(=O)CSC(=S)N3CCCCC3)sc2c1 | – | – | – | – | – | – | – | – |
| 31.6 | 3400 | 84.1 | 17.4 | NS(=O)(=O)c1ccc(NC(=O)CSC(=S)N2CCN(Cc3ccccc3)CC2)cc1 | – | – | – | – | – | – | – | – |
| 115 | > 10000 | 4190 | 91.4 | NS(=O)(=O)c1ccc2nc(NC(=O)CSC(=S)N3CCN(c4ccccc4)CC3)sc2c1 | – | – | – | – | – | – | – | – |
| 22.1 | > 10000 | 7570 | 50.3 | CCOC(=O)N1CCN(C(=S)SCC(=O)Nc2nc3ccc(S(N)(=O)=O)cc3s2)CC1 | Non-Toxic | Toxic | > 60 | Non-Toxic | Non-Toxic | Toxic | – | – |
| 26.8 | 8120 | 8.8 | 27.9 | NS(=O)(=O)c1ccc2nc(NC(=O)CSC(=S)N3CCOCC3)sc2c1 | – | – | – | – | – | – | – | – |
| 32.2 | > 10000 | 36.6 | 611 | COc1ccccc1N1CCN(C(=S)SCC(=O)Nc2ccc(S(N)(=O)=O)cc2)CC1 | Non-Toxic | Toxic | > 60 | Non-Toxic | Non-Toxic | Toxic | Toxic | – |
| 30.9 | > 10000 | 958 | 363 | COc1ccc(N2CCN(C(=S)SCC(=O)Nc3nc4ccc(S(N)(=O)=O)cc4s3)CC2)cc1 | Non-Toxic | Toxic | > 60 | Non-Toxic | Non-Toxic | Toxic | – | – |

Reference: ChEMBL document CHEMBL5352444, “Development of benzene and benzothiazole-sulfonamide analogues as selective inhibitors of the tumor-associated carbonic anhydrase IX” (Eur J Med Chem, 2022)
